Measurements: BigSolDB 2.1

CC(C)(C)C(=O)C(Oc1ccc(Cl)cc1)n1cncn1 (stereo not given)
solubility (mole fraction)
Conditions	288.15 K	293.15 K	298.15 K	303.15 K	308.15 K	313.15 K	318.15 K	323.15 K	328.15 K	333.15 K
in acetonitrile	0.011	0.0132	0.0162	0.0196	0.0238	0.0285	0.034	0.0407	0.0479	0.057
in cyclohexane	0.000445	0.00143	0.00382	0.00873	0.0178	0.0315	0.0489	0.0692	0.0869	0.0986
in n-heptane	0.00129	0.00204	0.00321	0.00483	0.00737	0.0111	0.0164	0.0238	0.034	0.0491
in n-hexane	0.000262	0.000539	0.00104	0.00197	0.0035	0.00592	0.00984	0.0156	0.0233	0.0354
in p-xylene	0.0631	0.0846	0.112	0.147	0.188	0.239	0.299	0.372	0.456	0.553
in toluene	0.0916	0.119	0.154	0.192	0.235	0.282	0.333	0.381	0.431	0.475
